Data on three compounds can be found in ChEMBL document CHEMBL1201862, “PubChem BioAssay data set” (2004).

Calls of active or inactive are those of the source.

In one experiment the target is Protein Tat (Human immunodeficiency virus type 1 group M subtype B (isolate HXB2)(HIV-1), UniProt P04608). It is filed as functional.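 Also: tat binding to TAR RNA read out by fluorescence polarization.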
A short description of experiment [1]: Dose-response inhibition of insulin secretion in a rat insulinoma line at 5 mM glucose (AID 1117331). It is filed as functional, cell-based. To be noted: INS-1E.
A short description of experiment [2]: HeLa 2N DNA content increase, dose response, cell-based, IC50 (AID 1117349). It is filed as functional.
A short description of another experiment: cells. It is filed as functional, cell-based. To be noted: INS-1E.
Experiment [3] in a line: HeLa 4N DNA content increase, dose response, cell-based, IC50 (AID 1117351). It is filed as functional.
Experiment [4] has as its target T1, Histone-lysine N-methyltransferase NSD2 (Homo sapiens, UniProt O96028).
T1 sequence (O96028 whole entry): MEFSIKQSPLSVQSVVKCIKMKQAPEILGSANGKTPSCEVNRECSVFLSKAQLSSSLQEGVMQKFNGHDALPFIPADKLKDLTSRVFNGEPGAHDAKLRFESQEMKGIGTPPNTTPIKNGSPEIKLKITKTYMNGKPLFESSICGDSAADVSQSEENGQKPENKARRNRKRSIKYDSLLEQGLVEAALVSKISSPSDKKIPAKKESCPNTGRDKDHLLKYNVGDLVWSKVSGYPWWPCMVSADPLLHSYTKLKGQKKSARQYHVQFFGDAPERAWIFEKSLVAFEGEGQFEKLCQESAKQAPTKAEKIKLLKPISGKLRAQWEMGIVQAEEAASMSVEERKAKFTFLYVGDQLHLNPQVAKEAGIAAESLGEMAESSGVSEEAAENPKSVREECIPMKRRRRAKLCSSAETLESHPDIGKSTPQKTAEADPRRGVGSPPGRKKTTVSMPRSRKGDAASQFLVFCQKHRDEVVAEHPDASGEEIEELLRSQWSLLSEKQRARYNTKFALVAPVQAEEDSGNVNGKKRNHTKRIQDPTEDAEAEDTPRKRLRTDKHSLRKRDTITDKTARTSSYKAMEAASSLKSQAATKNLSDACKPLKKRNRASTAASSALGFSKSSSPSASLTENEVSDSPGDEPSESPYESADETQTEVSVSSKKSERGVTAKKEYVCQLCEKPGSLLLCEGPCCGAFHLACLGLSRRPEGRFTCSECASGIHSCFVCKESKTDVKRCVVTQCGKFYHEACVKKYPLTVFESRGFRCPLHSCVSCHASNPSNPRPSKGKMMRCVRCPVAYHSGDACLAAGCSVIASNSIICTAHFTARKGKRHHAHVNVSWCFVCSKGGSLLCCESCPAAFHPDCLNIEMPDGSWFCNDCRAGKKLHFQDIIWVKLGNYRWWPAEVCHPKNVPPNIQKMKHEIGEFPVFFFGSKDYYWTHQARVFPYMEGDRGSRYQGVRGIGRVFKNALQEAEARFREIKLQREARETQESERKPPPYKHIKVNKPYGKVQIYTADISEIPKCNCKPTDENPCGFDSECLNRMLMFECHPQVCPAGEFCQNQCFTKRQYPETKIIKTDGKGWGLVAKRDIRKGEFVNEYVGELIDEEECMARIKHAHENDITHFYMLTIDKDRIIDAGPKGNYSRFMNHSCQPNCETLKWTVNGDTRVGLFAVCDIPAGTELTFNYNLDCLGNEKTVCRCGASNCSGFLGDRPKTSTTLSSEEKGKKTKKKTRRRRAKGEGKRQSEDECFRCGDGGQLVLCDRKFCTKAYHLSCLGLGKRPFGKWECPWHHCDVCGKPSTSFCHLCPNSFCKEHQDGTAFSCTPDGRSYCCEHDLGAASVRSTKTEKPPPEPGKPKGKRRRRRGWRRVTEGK
In kind it is biochemical.

The nature of experiment [5]: THP-1 cell cytotoxicity, dose response, cytotoxicity control for Vif-APOBEC3G degradation inhibitor project, THP-1 cells (AID 1117359). In kind it is functional. The settings on record: Human immunodeficiency virus 1, THP-1.
Experiment [6] deals with T2, Corticotropin-releasing factor receptor 2/Corticotropin-releasing factor-binding protein (Homo sapiens, UniProt P24387+Q13324).
T2 sequence (Q13324 whole entry): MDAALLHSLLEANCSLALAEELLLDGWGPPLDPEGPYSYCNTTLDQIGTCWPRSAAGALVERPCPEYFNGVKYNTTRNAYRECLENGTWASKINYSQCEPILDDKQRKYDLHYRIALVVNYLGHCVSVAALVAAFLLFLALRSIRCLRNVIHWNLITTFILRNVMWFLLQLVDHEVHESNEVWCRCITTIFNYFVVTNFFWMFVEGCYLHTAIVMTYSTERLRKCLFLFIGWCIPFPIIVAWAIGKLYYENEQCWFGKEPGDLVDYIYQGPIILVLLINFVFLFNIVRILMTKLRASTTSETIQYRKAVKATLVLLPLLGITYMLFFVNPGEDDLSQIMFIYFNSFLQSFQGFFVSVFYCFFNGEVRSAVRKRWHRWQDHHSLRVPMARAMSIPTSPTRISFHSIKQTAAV
T2 sequence (P24387 whole entry): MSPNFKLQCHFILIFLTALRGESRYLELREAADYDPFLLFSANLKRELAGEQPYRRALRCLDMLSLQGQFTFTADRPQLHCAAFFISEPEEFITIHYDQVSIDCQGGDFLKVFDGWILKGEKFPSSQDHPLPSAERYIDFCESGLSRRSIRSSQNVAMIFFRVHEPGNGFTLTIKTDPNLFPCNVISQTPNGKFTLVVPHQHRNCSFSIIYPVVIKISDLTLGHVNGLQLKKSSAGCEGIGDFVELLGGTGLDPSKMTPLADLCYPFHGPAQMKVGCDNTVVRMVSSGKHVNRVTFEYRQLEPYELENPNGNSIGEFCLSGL
The experiment can be described thus: activators of CRF receptor 2 with binding protein – uHTS hits, confirmation (AID 602473). It is filed as functional. The settings on record: read-out: EC50_Mean.

Experiment [7] in a line: HeLa cell cytotoxicity, dose response, cytotoxicity control for MgcRacGAP inhibitor project (AID 624300). In kind it is functional.
The target of a further experiment is Nonstructural protein 1 (Influenza A virus, UniProt Q194T2). In kind it is functional, Influenza A virus (A/California/07/2009(H1N1)).
Sequence of Nonstructural protein 1 (Q194T2 whole entry): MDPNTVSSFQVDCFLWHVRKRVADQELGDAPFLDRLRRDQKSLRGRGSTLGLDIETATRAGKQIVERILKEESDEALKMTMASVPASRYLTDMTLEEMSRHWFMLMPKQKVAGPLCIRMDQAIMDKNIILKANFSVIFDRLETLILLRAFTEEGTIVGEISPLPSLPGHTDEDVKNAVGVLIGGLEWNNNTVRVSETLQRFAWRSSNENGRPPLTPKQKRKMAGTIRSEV
In experiment [8] the target is T3, Rac GTPase-activating protein 1 (Homo sapiens, UniProt Q9H0H5).
T3 sequence (Q9H0H5 whole entry): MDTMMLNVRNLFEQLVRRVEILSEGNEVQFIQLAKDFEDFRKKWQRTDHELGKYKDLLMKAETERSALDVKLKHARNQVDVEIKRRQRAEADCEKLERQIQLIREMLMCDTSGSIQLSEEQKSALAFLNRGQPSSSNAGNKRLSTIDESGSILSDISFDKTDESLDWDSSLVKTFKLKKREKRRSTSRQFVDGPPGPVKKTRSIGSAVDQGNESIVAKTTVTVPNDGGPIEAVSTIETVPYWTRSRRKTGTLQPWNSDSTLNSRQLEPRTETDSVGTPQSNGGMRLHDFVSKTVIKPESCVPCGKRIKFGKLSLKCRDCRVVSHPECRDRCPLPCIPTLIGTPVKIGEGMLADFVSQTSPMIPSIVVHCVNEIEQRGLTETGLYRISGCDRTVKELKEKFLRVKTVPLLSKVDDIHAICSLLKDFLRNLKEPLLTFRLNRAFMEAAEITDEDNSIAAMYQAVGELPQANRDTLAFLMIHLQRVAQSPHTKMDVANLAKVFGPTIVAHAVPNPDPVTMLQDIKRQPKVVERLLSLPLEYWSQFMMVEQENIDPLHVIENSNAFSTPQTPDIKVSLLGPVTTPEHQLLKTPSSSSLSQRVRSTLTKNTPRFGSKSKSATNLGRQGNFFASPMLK
Kind of experiment: MgcRacGAP GTPase-activating activity inhibitors, confirmation, biochemical, ADP Hunter fluorescence, primary and confirmatory (AID 624330). In kind it is functional.

Experiment [9] concerns the target T2, Corticotropin-releasing factor receptor 2/Corticotropin-releasing factor-binding protein. The experiment can be described thus: Dose Response confirmation of uHTS hits for small molecule antagonists of the CRF-binding protein and CRF-R2 receptor complex. It is filed as functional. To be noted: read-out: IC50_Mean.
Experiment [10] deals with Glutathione-S-transferase (Schistosoma japonicum, UniProt Q26513). The experiment can be described thus: biotin-GST/anti-GST TR-FRET signal inhibitors, dose response, artefact control for Vif-APOBEC3G degradation inhibitor project, biochemical (AID 1117362). In kind it is functional.
Sequence of Glutathione-S-transferase (Q26513 whole entry): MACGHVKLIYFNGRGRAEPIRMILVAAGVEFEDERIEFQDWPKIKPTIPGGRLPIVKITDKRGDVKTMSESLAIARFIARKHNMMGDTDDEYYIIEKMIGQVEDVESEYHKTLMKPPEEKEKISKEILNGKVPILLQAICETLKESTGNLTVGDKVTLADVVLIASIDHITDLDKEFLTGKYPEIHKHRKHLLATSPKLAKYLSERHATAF
Experiment [11] addresses T4, COUP transcription factor 2 (Homo sapiens, UniProt P24468).
T4 sequence (P24468 whole entry): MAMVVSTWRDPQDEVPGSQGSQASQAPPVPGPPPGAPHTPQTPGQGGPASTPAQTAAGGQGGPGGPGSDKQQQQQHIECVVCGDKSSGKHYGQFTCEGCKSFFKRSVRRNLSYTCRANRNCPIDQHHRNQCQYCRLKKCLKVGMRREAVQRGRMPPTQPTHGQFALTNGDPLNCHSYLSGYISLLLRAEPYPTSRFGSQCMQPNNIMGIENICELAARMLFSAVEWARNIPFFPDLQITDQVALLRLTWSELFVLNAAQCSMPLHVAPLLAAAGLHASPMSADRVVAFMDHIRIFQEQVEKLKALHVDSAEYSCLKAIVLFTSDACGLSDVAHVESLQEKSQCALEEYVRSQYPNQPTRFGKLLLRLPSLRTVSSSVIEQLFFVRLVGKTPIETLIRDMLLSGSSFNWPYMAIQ
Kind of experiment: Luminescence-based cell-based high throughput dose response assay to identify inhibitors of COUP-TFII (NR2F2). In kind it is functional.

Sequence of Protein Tat (P04608 whole entry): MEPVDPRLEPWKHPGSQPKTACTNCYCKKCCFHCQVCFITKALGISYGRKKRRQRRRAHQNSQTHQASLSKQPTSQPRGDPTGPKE

Consider `COc1ccccc1NC(=O)CN(Cc1ccco1)C(=O)c1cccs1`, for which the IC50 on Protein Tat was > 100 µM (inconclusive).

Turning to `CC(CC1c2ccccc2CCc2ccccc21)CN(C)C` (centres undefined) [BUTRIPTYLINE], the IC50 in [1] was 3.64 µM (active); in experiment [2] it was > 10 µM (inactive); in the experiment “cells”, > 33.3 µM (inactive); in experiment [3], > 10 µM (inactive).

Regarding `Cc1cc2c(=Cc3ccc(N(C)C)cc3)c3ccccc3n2[n+]1C`, the AC50 in experiment [4] is 17.6 µM (active). Moreover, the CC50 is 1.02 µM (active) in experiment [5] and 18.5 µM (active) in experiment [7]. Besides, in [6], the EC50 was > 53 µM (inactive). The IC50 on Nonstructural protein 1 is 20.9 µM (active); in experiment [8], 45.4 µM (active); in experiment [9], > 47.1 µM (inactive); in experiment [10], 7.36 µM (active); in [11], 3.87 µM (active).

By AC50 is commonly meant the midpoint of the concentration-response curve, whichever way the signal moves. As usually defined, the CC50 is the concentration giving 50% cytotoxicity.
